Assay [1] deals with Pseudomonas aeruginosa biofilm associated cells. The assay can be described thus: effect on biofilms in the dark. The class given is cell-based.
For assay [2], the system named is circular plasmid DNA (pUC18). In words: photocleavage of plasmid DNA in the absence of oxygen, gel electrophoresis. The class given is biochemical. To be noted: 10:1 base pair to complex ratio, wavelengths above 420 nm. As to the method:
Referring now to FIG. 4, photocleavage studies based on a 10 to 1 base pairs to ZnPFPTMP was irradiated with a 420 nm filter and samples were taken at 10 minute intervals. In FIG. 3, gel electrophoresis of circular plasmid DNA (pUC18) in the absence (lane 1) and presence (lanes 2-10) of ZnPFPTMP at a 10:1 base pair to complex ratio is shown. Samples were irradiated with a 300 W mercury arc lamp equipped with a long pass filter, cutting off wavelengths below 420 nm in the absence of oxygen, and were taken at 10 minute intervals. Accordingly, ZnPFPTMP can be effective under hypoxic conditions.

A further assay has as its system calf thymus CT-DNA. The assay can be described thus: DNA titration by absorption spectra. It counts as binding. The conditions noted are these: pH 7.2 buffer, ionic strength 0.1 M. As to the method: A sample of ZnPFPTMP from Part C was tested by various methods and techniques to determine how this compound may be utilized. In one test ZnPFPTMP was titrated into a DNA sample to determine ZnPFPTMP's affinity for binding to DNA. This test was conducted by measuring the absorption spectra of pH 7.2 buffer solutions (ionic strength=0.1 M) of ZnPFPTMP in the presence of increasing amounts of calf thymus CT-DNA.

Assay [3] deals with Pseudomonas aeruginosa planktonic cells. The assay can be described thus: killing of planktonic cells in the absence of light, viable plate counts. The class given is cell-based. The conditions noted are these: 37° C. As to the method: ZnPFPTMP was added to cell suspensions at the concentrations shown in FIG. 5 (0 to 100 μM) and incubated at 37° C. in the absence of light. […]

For another assay, the system named is Staphylococcus aureus. In words: killing of bacteria in the absence of light, plated to determine viability. The class given is cell-based. An excerpt:
Additionally, the ability of ZnPFPTMP to affect killing of bacteria in the absence of light was further tested against the Gram-positive pathogenic bacterium Staphylococcus aureus. This bacterium was chose to evidence the ability of the porphyrins of general formula (I) to treat/kill methicillin-resistant Staphylococcus aureus (MRSA) without exposing the scientists to MRSA directly. Moreover, it is believed that the mechanism used by the porphyrins of general formula (I) is unlikely to involve the methicillin resistance mechanism. S. aureus cells grown in LB medium were washed and re-suspended on 0.2% peptone and exposed to either 1.5 μM or 3.0 μM Zeke in sterile water. Cell suspensions were sampled every 30 minutes for 3 hours and plated to determine viability. […] At 1.5 μM Zeke's complete elimination of viable cells of S. aureus took only two hours.

The subject of assay [4] is circular plasmid DNA (pUC18). The assay can be described thus: photocleavage of plasmid DNA in the presence of oxygen, gel electrophoresis. To be noted: 50:1 base pair to complex ratio. The class given is biochemical. As to the method: To appreciate the significance of the increased absorption of ZnPFPTMP in the PDT window, comparative photocleavage studies of plasmid DNA under normal conditions (i.e., in the presence of oxygen) were conducted for ZnPFPTMP and its free-base porphyrin. […] In FIG. 3, gel electrophoresis of circular plasmid DNA (pUC18) in the absence (lane 1) and presence (lanes 2-10) of unmetallated porphyrin (A) and ZnPFPTMP (B) at a 50:1 base pair to complex ratio are shown. Samples were irradiated with a 300 W mercury arc lamp equipped with a long pass filter, cutting off wavelengths below 550 nm, and were taken at 2 minute intervals.
ZnPFPTMP is very reactive at such low energy wavelengths of light.

Regarding “meso-5,10,15-tris(N-methyl-4-pyridyl)-20-(pentafluorophenyl)porphyrinatozinc(II), tris-p-toluene sulfonate [ZnPFPTMP]”, in assay [1] (added to cell suspensions incubated in the dark), the biofilm formation result was “Biofilms were prevented”. For the same substance, the “log reduction in preformed biofilms” value in assay [1] (preformed biofilms exposed in the dark (data not shown)) came to 2.7 log. Besides, the “photonicking of DNA in the absence of oxygen” value in assay [2] is “effective at photonicking DNA”. In the assay with calf thymus CT-DNA, the “binding constants to DNA” value was “greater than 10^6”. In addition, in assay [3] (2 hours), the “killing at two hours” value is “substantial killing”. Besides, the “MLC (minimum lethal concentration)” value in assay [3] (7 hours, no survivors) was found to be 25 µM. The “time to complete elimination of viable cells” value in the assay on Staphylococcus aureus (1.5 μM) was “two”. Also, in the assay on Staphylococcus aureus (3.0 μM, after 30 min), the “log reduction in viable cells” value amounted to 5.5 log. In addition, the viable cells remaining result in the assay on Staphylococcus aureus (3.0 μM, after 60 min) is on record as “no viable cells remained”. Further, the “band intensity compared to free-base porphyrin” value in assay [4] (after 2 minutes versus free-base porphyrin after 20 minutes, above 550 nm) is recorded as “more intense bands”. In assay [4] (after two minutes, wavelengths above 550 nm, oxygen present), the “photonicking of plasmid DNA” value is listed as “effective compete photonicking”.

These data come from patent publication US9364537B2, “Transition metal porphyrin complexes and methods of treatment using same” (UNIVERSITY OF DAYTON, priority 2014, dated 2016).
